Data published in publication PMC11823630, “In vitro potentiation of tetracyclines in Pseudomonas aeruginosa by RW01, a new cyclic peptide” (Antimicrobial Agents and Chemotherapy, 2024).
Values after ≈ are worked out from the molar mass of the structure shown.

How the values were obtained:
[1] = test system: P. aeruginosa 125A; test: MIC, CLSI broth microdilution in BD Phoenix AST Broth; format: cell-based, Pseudomonas aeruginosa; settings: Pseudomonas aeruginosa; strain 125A; agent alone; 37°C, 18–22 h; three biological replicates
Procedure: (§1) MIC for RW01 was also tested.
(§2) FIC of RW01 (FICRW01)=MIC of RW01 in combination/MIC of RW01 alone,FIC of antibiotic (FICATB)=MIC of ATB in combination/MIC of ATB alone,FICI=FICRW01 +FICATB.
(§3) FICI was interpreted as follows: synergistic effect if FICI is ≤0.5; additive effect if 0.5 < FICI ≤ 1.0; indifferent effect if 1.0 < FICI ≤ 2.0; and finally, antagonistic effect if FICI is >2.0. The average FICI considering the antibiotic MIC (no growth in any of the replicates) at different concentrations of RW01 was calculated ([28]).

[2] = test system: P. aeruginosa 41B; test: as above; format: cell-based, Pseudomonas aeruginosa; settings: Pseudomonas aeruginosa; strain 41B; agent alone; 37°C, 18–22 h; three biological replicates
Procedure: as §1, §2, §3

[3] = test system: P. aeruginosa PAOΔmexZ; test: as above; format: cell-based, Pseudomonas aeruginosa; settings: Pseudomonas aeruginosa, strain PAOΔmexZ; agent alone; 37°C, 18–22 h; three biological replicates
Procedure: as §1, §2, §3

[4] = test system: P. aeruginosa PAO1; test: as above; format: cell-based, Pseudomonas aeruginosa; settings: Pseudomonas aeruginosa, PAO1, strain PAO1; agent alone; 37°C, 18–22 h; three biological replicates; read-out: MIC
Procedure: as §1, §2, §3

[5] = test system: P. aeruginosa PAOUW; test: as above; format: cell-based, Pseudomonas aeruginosa; settings: Pseudomonas aeruginosa, strain PAOUW; agent alone; 37°C, 18–22 h; three biological replicates; read-out: MIC
Procedure: as §1, §2, §3

[6] = test system: P. aeruginosa PAOΔmexR; test: as above; format: cell-based, Pseudomonas aeruginosa; settings: Pseudomonas aeruginosa
Procedure: as §1, §2, §3

[7] = test system: P. aeruginosa PAOUW∆oprF; test: as above; format: cell-based, Pseudomonas aeruginosa; settings: Pseudomonas aeruginosa, strain PAOUWΔoprF; agent alone; 37°C, 18–22 h; three biological replicates
Procedure: as §1, §2, §3

[8] = test system: P. aeruginosa 125B; test: as above; format: cell-based, Pseudomonas aeruginosa; settings: Pseudomonas aeruginosa; strain 125B; agent alone; 37°C, 18–22 h; three biological replicates
Procedure: as §1, §2, §3

[9] = test system: P. aeruginosa PAOΔoprM; test: as above; format: cell-based, Pseudomonas aeruginosa; settings: Pseudomonas aeruginosa
Procedure: as §1, §2, §3

[10] = test system: P. aeruginosa 41A; test: as above; format: cell-based, Pseudomonas aeruginosa; settings: Pseudomonas aeruginosa; strain 41A; agent alone; 37°C, 18–22 h; three biological replicates
Procedure: as §1, §2, §3

[11] = test system: PAO1 mutant MIN4_RW01_2, pmrB(F124S); test: microbe, parasite or virus in culture; format: cell-based; settings: Pseudomonas aeruginosa, PAO1, read-out: MIC, Sensititre
Procedure: (§4) Selection of resistant mutants was performed for minocycline with and without RW01 in three independent replicates for wild-type P. aeruginosa reference strain PAO1. Tubes containing Mueller-Hinton broth (MHB) were inoculated and incubated for 24 h at 37°C. Afterward, 1/100 dilution of each tube was incubated at 37°C in MHB to late-exponential growth phase, measured by spectrophotometry at OD600. […] A control plate without antibiotic was included as inoculum control. After overnight incubation, colony counting of each treatment was performed to analyze the generation of resistant population. The mutant prevention concentration (MPC) was defined as the lowest concentration of antibiotic yielding no growth of resistant mutants. Selected mutants were checked for susceptibility profiles by using a Sensititre custom plate (Thermo Fisher Scientific, Massachusetts, USA) for Gram-negative bacteria, following the manufacturer’s instructions.

[12] = test system: PAO1 mutant MIN1_RW01_4, pmrB(F124L); test: microbe, parasite or virus in culture; format: cell-based; settings: Pseudomonas aeruginosa, PAO1, read-out: MIC, Sensititre
Procedure: as §4

[13] = test system: P. aeruginosa PAO1, WT; test: MIC, Sensititre custom plate; format: cell-based; settings: Pseudomonas aeruginosa, PAO1, read-out: MIC, Sensititre
Procedure: as §4

[14] = test system: PAO1 mutant MIN16_1, nalD(T43P); test: MIC, Sensititre custom plate; format: cell-based; settings: Pseudomonas aeruginosa, PAO1, read-out: MIC, Sensititre
Procedure: as §4

[15] = test system: PAO1 mutant MIN32_1, mexR(R63H), pilB(N349K), PA0646(V316G); test: MIC, Sensititre custom plate; format: cell-based; settings: Pseudomonas aeruginosa, PAO1, read-out: MIC, Sensititre
Procedure: as §4

[16] = test system: PAO1 mutant MIN8_2, pilZ(nt18InsT); test: MIC, Sensititre custom plate; format: cell-based; settings: Pseudomonas aeruginosa, PAO1, read-out: MIC, Sensititre
Procedure: as §4

[17] = test system: PAO1 mutant MIN8_1, nalD(R3C), pilM(Q62X); test: MIC, Sensititre custom plate; format: cell-based; settings: Pseudomonas aeruginosa, PAO1, read-out: MIC, Sensititre
Procedure: as §4

[18] = test system: PAO1 mutant MIN1_RW01_1, pmrB(Y98N); test: MIC, Sensititre custom plate; format: cell-based; settings: Pseudomonas aeruginosa, PAO1, read-out: MIC, Sensititre
Procedure: as §4

[19] = test system: PAO1 mutant MIN16_3, nfxB(nt79∆14), pilB(N349K); test: MIC, Sensititre custom plate; format: cell-based; settings: Pseudomonas aeruginosa, PAO1, read-out: MIC, Sensititre
Procedure: as §4

[20] = test system: PAO1 mutant MIN4_RW01_1, pmrB(R429H); test: MIC, Sensititre custom plate; format: cell-based; settings: Pseudomonas aeruginosa, PAO1, read-out: MIC, Sensititre
Procedure: as §4

[21] = test system: PAO1 mutant MIN4_RW01_3, pmrB(M292T); test: MIC, Sensititre custom plate; format: cell-based; settings: Pseudomonas aeruginosa, PAO1, read-out: MIC, Sensititre
Procedure: as §4

[22] = test system: PAO1 mutant MIN8_4, pilZ(nt18InsT); test: MIC, Sensititre custom plate; format: cell-based; settings: Pseudomonas aeruginosa, PAO1, read-out: MIC, Sensititre
Procedure: as §4

[23] = test system: PAO1 mutant MIN4_RW01_4, pmrB(Y98N); test: MIC, Sensititre custom plate; format: cell-based; settings: Pseudomonas aeruginosa, PAO1, read-out: MIC, Sensititre
Procedure: as §4

[24] = test system: PAO1 mutant MIN2_RW01_3, parS(V152A); test: MIC, Sensititre custom plate; format: cell-based; settings: Pseudomonas aeruginosa, PAO1, read-out: MIC, Sensititre
Procedure: as §4

[25] = test system: PAO1 mutant MIN16_2, nalC(aa9∆4), pilQ(nt46∆1); test: MIC, Sensititre custom plate; format: cell-based; settings: Pseudomonas aeruginosa, PAO1, read-out: MIC, Sensititre
Procedure: as §4

[26] = test system: PAO1 mutant MIN2_RW01_4, pmrB(M292T); test: MIC, Sensititre custom plate; format: cell-based; settings: Pseudomonas aeruginosa, PAO1, read-out: MIC, Sensititre
Procedure: as §4

[27] = test system: PAO1 mutant MIN1_RW01_2, mexR(G58E), pilB(G326D), hutC(Y181X); test: MIC, Sensititre custom plate; format: cell-based; settings: Pseudomonas aeruginosa, PAO1, read-out: MIC, Sensititre
Procedure: as §4

[28] = test system: PAO1 mutant MIN8_3, pilZ(nt18InsT); test: MIC, Sensititre custom plate; format: cell-based; settings: Pseudomonas aeruginosa, PAO1, read-out: MIC, Sensititre
Procedure: as §4

[29] = test system: PAO1 mutant MIN1_RW01_3, pmrB(V215L); test: MIC, Sensititre custom plate; format: cell-based; settings: Pseudomonas aeruginosa, PAO1, read-out: MIC, Sensititre
Procedure: as §4

[30] = test system: PAO1 mutant MIN2_RW01_1, pmrB(V215L); test: MIC, Sensititre custom plate; format: cell-based; settings: Pseudomonas aeruginosa, PAO1, read-out: MIC, Sensititre
Procedure: as §4

[31] = test system: PAO1 mutant MIN2_RW01_2, pmrB(M292T); test: MIC, Sensititre custom plate; format: cell-based; settings: Pseudomonas aeruginosa, PAO1, read-out: MIC, Sensititre
Procedure: as §4

[32] = test system: PAO1 mutant MIN16_4, nalC(T50P), pilM(Q62X); test: MIC, Sensititre custom plate; format: cell-based; settings: Pseudomonas aeruginosa, PAO1, read-out: MIC, Sensititre
Procedure: as §4

C[C@@H](O)[C@H]1C(=O)N2C(C(=O)O)=C(SCCN=CN)C[C@H]12 [Imipenem, imipenem] gave an MIC [1] of 2 µg/mL, an MIC [2] of 16 µg/mL and an MIC [3] of 2 µg/mL. The MIC [4] was 2 µg/mL, the MIC [5] was 8 µg/mL and the MIC [6] was 0.5 µg/mL. For the same compound, the MIC [7] was 2 µg/mL, the MIC [8] was 2 µg/mL and the MIC [9] was 2 µg/mL. For the same compound, the MIC [10] was 2 µg/mL, the MIC [11] was 2 µg/mL (≈ 6.68 µM) and the MIC [12] was 2 µg/mL (≈ 6.68 µM). The MIC [13] was 1 to 2 µg/mL (≈ 3.34 to 6.68 µM), the MIC [14] was 2 to 4 µg/mL (≈ 6.68 to 13.4 µM) and the MIC [15] was 2 µg/mL (≈ 6.68 µM). The MIC [16] was 2 µg/mL (≈ 6.68 µM), the MIC [17] was 2 µg/mL (≈ 6.68 µM) and the MIC [18] was 2 µg/mL (≈ 6.68 µM). The MIC [19] was 1 µg/mL (≈ 3.34 µM), the MIC [20] was 2 to 4 µg/mL (≈ 6.68 to 13.4 µM) and the MIC [21] was 16 µg/mL (≈ 53.4 µM). For the same compound, the MIC [22] was 2 µg/mL (≈ 6.68 µM), the MIC [23] was 4 µg/mL (≈ 13.4 µM) and the MIC [24] was 8 µg/mL (≈ 26.7 µM). It also gave an MIC [25] of 2 µg/mL (≈ 6.68 µM), an MIC [26] of 2 µg/mL (≈ 6.68 µM) and an MIC [27] of 1 µg/mL (≈ 3.34 µM). The MIC [28] was 2 µg/mL (≈ 6.68 µM), the MIC [29] was 2 µg/mL (≈ 6.68 µM) and the MIC [30] was 4 µg/mL (≈ 13.4 µM). It also gave an MIC [31] of 2 µg/mL (≈ 6.68 µM) and an MIC [32] of 2 µg/mL (≈ 6.68 µM).
